Target: T1, sGC α1/β1 heterodimer (Homo sapiens, UniProt Q02108+Q02153)
T1 construct: expressed in transfected cells
T1 sequence (Q02108 1-690 partner): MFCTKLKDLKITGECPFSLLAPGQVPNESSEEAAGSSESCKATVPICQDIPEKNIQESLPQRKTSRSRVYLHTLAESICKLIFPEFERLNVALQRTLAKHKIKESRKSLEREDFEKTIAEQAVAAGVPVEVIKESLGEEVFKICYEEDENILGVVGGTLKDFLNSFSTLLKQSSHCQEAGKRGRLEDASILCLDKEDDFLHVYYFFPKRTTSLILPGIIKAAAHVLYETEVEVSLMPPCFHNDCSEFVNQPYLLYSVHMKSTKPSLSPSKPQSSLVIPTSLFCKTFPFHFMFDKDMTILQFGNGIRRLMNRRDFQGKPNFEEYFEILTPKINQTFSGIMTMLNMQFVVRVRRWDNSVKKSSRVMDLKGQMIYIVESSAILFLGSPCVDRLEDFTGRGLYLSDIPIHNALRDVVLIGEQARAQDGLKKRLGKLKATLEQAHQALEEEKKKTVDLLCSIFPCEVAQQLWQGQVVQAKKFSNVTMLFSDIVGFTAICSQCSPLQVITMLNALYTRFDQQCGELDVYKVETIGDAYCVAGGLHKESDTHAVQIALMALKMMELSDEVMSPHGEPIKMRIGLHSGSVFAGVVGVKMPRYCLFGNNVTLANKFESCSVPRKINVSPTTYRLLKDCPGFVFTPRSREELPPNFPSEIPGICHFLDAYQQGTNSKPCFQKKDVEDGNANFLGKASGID
T1 sequence (Q02153 1-619): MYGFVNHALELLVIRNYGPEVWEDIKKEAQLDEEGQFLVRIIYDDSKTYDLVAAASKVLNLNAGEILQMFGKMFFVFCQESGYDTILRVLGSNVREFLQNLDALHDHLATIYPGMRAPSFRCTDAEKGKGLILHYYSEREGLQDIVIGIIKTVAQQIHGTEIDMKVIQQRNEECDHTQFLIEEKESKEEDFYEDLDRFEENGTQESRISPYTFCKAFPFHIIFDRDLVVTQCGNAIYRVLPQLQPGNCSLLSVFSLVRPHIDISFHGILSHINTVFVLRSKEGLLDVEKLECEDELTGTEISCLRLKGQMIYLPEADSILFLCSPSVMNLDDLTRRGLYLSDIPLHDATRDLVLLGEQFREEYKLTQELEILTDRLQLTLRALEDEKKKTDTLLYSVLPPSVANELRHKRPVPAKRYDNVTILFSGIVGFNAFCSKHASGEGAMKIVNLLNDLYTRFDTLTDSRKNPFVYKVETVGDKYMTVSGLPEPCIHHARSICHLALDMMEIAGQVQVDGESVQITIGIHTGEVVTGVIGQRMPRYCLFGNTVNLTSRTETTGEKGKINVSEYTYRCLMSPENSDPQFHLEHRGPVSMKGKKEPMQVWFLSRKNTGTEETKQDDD
Test: Cell-based sGC Functional Assay (cGMP level by HTRF in CHO-K1/sGC cells)
Settings: with ODQ incubation (10 μM); for EC50: read-out: IP (nM) inflection point; for fold induction: read-out: maximum fold induction over DMSO control
Source text: Cell-based sGC Functional Assay
A CHO-K1 cell line stably expressing the sGC α1/β1 heterodimer was generated using a standard transfection protocol. CHO-K1 cells were transfected with plasmids pIREShyghsGCα1 and pIRESneo-hsGCβ1 simultaneously using FUGENE reagent. Clones that stably express both subunits were selected with hygromycin and neomycin for ˜2 weeks. Clone #7 was chosen for the assay and was designated CHO-K1/sGC. CHO-K1/sGC cells were maintained in F-K12 medium containing 10% heat-inactivated Fetal Bovine Serum (FBS), 100 μg/mL penicillin/streptomycin, 0.5 mg/mL hygromycin and 0.25 mg/mL G418. On the day of the assay, cells were harvested in EBSS (Earle's balanced salt solution) Assay Buffer (EAB) containing 5 mM MgCl2, 10 mM HEPES (4-(2-hydroxyethyl)piperazine-1-ethanesulfonic acid) and 0.05% BSA (bovine serum albumin) and cell density was adjusted to 0.75−1.25×10^6 cells/ml with EAB. IBMX (3-isobutyl-1-methylxanthin, 0.5 mM) was added to inhibit degradation of cGMP. Compounds were diluted from DMSO stock solutions and added to the assay at a final DMSO concentration of 1%. Cells were incubated with compounds in the presence and absence of 10 μM of 1H-(1,2,4)oxadiazolo(4,3-a) quinoxalin-1-one (ODQ) for 1 hr at 37° C. At the end of the incubation period, the reaction was terminated and the cells were lysed. The level of intracellular cGMP was determined using an HTRF-based assay kit (CisBio, 62GM2PEC), which detects the displacement of a fluorescence labeled cGMP from its specific antibody. The amount of cGMP was plotted against compound concentration in PRISM software and the inflection point (IP) and maximum fold induction over DMSO control were derived from the plot.

SMILES | EC50 [nM] | fold induction
COC(=O)N1CCC(c2ccc(-c3ccc(C(F)(F)F)cc3-c3cccc(-n4ncc(C(=O)O)c4C(F)(F)F)n3)cc2)CC1 [Example 127, 1-{6-[4′-[1-(methoxycarbonyl)piperidin-4-yl]-4-(trifluoromethyl)biphenyl-2-yl]pyridin-2-yl}-5-(trifluoromethyl)-1H-pyrazole-4-carboxylic acid] | 15.8 | 119
O=C(O)c1cnn(-c2cccc(-c3cc(F)ccc3-c3ccc(C4CCN(CCC(F)(F)F)CC4)cc3)n2)c1C(F)(F)F [Example 136, 1-(6-{4-fluoro-4′-[1-(3,3,3-trifluoropropyl)piperidin-4-yl]biphenyl-2-yl}pyridin-2-yl)-5-(trifluoromethyl)-1H-pyrazole-4-carboxylic acid] | 78.8 | 162
O=C(O)c1cnn(-c2cccc(-c3cc(C(F)(F)F)cnc3-c3ccc(C4CCN(CC(F)(F)F)CC4)cc3)n2)c1C(F)(F)F [Example 61, 1-[2′-{4-[1-(2,2,2-trifluoroethyl)piperidin-4-yl]phenyl}-5′-(trifluoromethyl)-2,3′-bipyridin-6-yl]-5-(trifluoromethyl)-1H-pyrazole-4-carboxylic acid] | 16.3 | 248
O=C(O)c1cnn(-c2cccc(-c3cc(Cl)ccc3-c3ccc(N4CCN(CC(F)(F)F)CC4)cc3)n2)c1C(F)(F)F [Example 175, 1-(6-{4-chloro-4′-[4-(2,2,2-trifluoroethyl)piperazin-1-yl]biphenyl-2-yl}pyridin-2-yl)-5-(trifluoromethyl)-1H-pyrazole-4-carboxylic acid] | 9.8 | 703

More lines, now with the values ahead:

EC50 [nM] | fold induction | SMILES
30.2 | 281 | O=C(O)c1cnn(-c2cccc(-c3cc(Cl)ccc3-c3ccc(C4CCN(C(=O)C5CC5)CC4)cc3)n2)c1C(F)(F)F [Example 94, 1-(6-{4-chloro-4′-[1-(cyclopropylcarbonyl)piperidin-4-yl]biphenyl-2-yl}pyridin-2-yl)-5-(trifluoromethyl)-1H-pyrazole-4-carboxylic acid]
14.6 | 231 | O=C(O)c1cnn(-c2cccc(-c3cc(Cl)ccc3-c3ccc(C4CCN(CC(F)(F)F)CC4)cc3)n2)c1C(F)(F)F [Example 60, 1-(6-{4-chloro-4′-[1-(2,2,2-trifluoroethyl)piperidin-4-yl]biphenyl-2-yl}pyridin-2-yl)-5-(trifluoromethyl)-1H-pyrazole-4-carboxylic acid]
